# Source: patent US20020111314A1, “Novel stimulation of gene expression and protein synthesis of heat shock protein 72/73 (Hsp 70)” (The Trustees of Columbia University, priority 1995, published 2002)
# Square brackets hold non-standard residues; d marks the D form. Peptide text beside a SMILES is read from it. Nle = CCCC[C@H](N)C(=O)O
# Legend:
# Hsp70 [1] = test: Hsp70 induction in HepG2 cells ([3H]-leucine labeling, denaturing immunoprecipitation); assay type: cell-based, human; conditions: for Hsp70 levels after removal of ALLN: 4-hour preincubation
# Experimental: HepG2 cells were grown up to 95% confluence and then preincubated for 4 hours in a 37° C. incubator with serum-free minimum essential medium (MEM), followed by radiolabeling with 3H-leucine (150 μCi/ml) dissolved in serum-free, leucine-free medium. Preincubation and labeling medium each contained 1.5% bovine serum albumin (BSA) plus different concentrations of ALLN as indicated. After labeling, cells were collected and lysed, and Hsp70 was immunoprecipitated under denaturing conditions as described under Experimental Details. Cell lysates containing an equal amount of TCA-insoluble radioactivity were used for immunoprecipitation. (A): The immunoprecipitates were analyzed by sodium dodecyl sulfate-polyacryamide gel electrophoresis (SDS-PAGE) and fluorography. Numbers on the left-hand side denote molecular markers. (B): The Hsp70 radioactivity was quantitated by scintillation counting and plotted. All the values were presented as means±SD from three individual culture dishes.
# (§1) FIGS. 3A-3B: Effects of the other protease inhibitors on Hsp70 biosynthesis in HepG2 cells. HepG2 cells were preincubated in serum-free MEM containing either 1.5% BSA alone (Control), or BSA plus 40 μg/ml of ALLN, 40 μg/ml of ALLM, 50 μg/ml of leupeptin, 50 μg/ml of pepstatin A, 25 μg/ml of E-64d, 1 mM of phenylmethylsulfonyl fluoride (PMSF), 100 KIU/ml of apotinin, 1 mM of Benzamidine (Benz), 200 μM of calpain inhibitor peptide (CIP). Radiolabeling (in the presence of protease inhibitors), lysis and immunoprecipitation were performed as described in FIG. 1. The Hsp70 specific radioactivity (A) and the amount of total incorporated radioactivity (TCA-cpm) (B) were compared with each other. All the values were presented as the mean±SD from three individual culture dishes.
# FIGS. 9A-9B: Effects of proteasome inhibitors on Hsp70 induction. HepG2 cells were preincubated with the proteasome inhibitors MG132 at a final concentration of either 10 μM or 30 μM (A), or lactacystin at 10 μM (B) for 4 hours under conditions described in FIG. 3. These cells were then subjected to radiolabeling (30 min), cell lysis, and immunoprecipitation with anti-Hsp70 antibody. The experiments with MG132 (A) were repeated twice; the effects of lactacystin (B) were studied in triplicate culture dishes.
# ALLN, leupeptin, mouse anti-human Hsp72/73 monoclonal antibody, a secondary antibody conjugated with horseradish peroxidase (HRP) (goat anti-rabbit immunoglubin G [IgG]), and rabbit anti-rat IgG antibody were from Boehringer Mannheim Co. Anti-Human Hsp25 and anti-human Hsp60 monoclonal antibodies, ALLM, Calpain inhibitor peptide (CIP), dimethyl sulfoxide (DMSO) and dithiothreitol (DTT) were from Sigma. Human Hsp70 oligonucleotide probe was from Oncogene Science. This oligonucleotide was ^32P labeled at the 5′-end by T4 Kinase, which was from Biolabs. ^32P was from ICN Pharmaceutical Inc. L-[4,5-^3H] leucine was from Amersham Co. Anti-human Bip (immunoglobulin heavy chain binding protein, also called Grp78), anti-human Hsp27, anti-human Hsp60, and anti-human Hsp90 monoclonal antibodies were from Stress Genes. Anti-human Hsp86 and Hsp104 antibodies were from Affinity Bioreagent Inc. Nitrocellular transfer and immobilization membranes were from Schleicher & Schuell, Keene, N.H. RNA extraction kits were from Biotect, Tex. The polyclonal antibody against the human HSF1 protein was a generous gift from Dr. Carl Wu of the National Institute of Health (Rabindran, et al., 1993). Ethylene glycol bis(succunimidylsuccinate) (EGS) was from Pierce. Cbz-leucyl-leucyl-leucinal (MG132) was a gift of Dr. H. Ploegh at the Massachusetts Institute of Technology. All the other tissue culture supplies and chemicals were obtained from supplies as previously described (Dixon, et al., 1991). The HepG2 cell culture conditions were maintained as previously described (Dixon, et al., 1991).
# HepG2 cells = test: Total incorporation of radiolabel (TCA cpm) as indicator of cell toxicity in HepG2 cells; assay type: cell-based, human; conditions: ALLN 10 μg/ml
# Experimental: as §1
# Preincubation and labeling media each contained either 1.5% bovine serum albumin (BSA) alone, or BSA plus ALLN (40 μg/ml except as otherwise indicated), or BSA plus other protease inhibitors at concentrations indicated in the figure legends. At the indicated times, cells were removed from the 37° C. incubator and placed on ice, washed with cold phosphate-buffer saline (PBS) twice and lysed with lysis buffer containing 1% Triton X-100 (TX100), 1% deoxycholic acid (DOC) and 0.1% SDS in PBS containing proteinase inhibitors: 2 mM phenylmethylsulfonyl fluoride (PMSF); 2 μg/ml ALLN; 2 μg/ml leupeptin; and 2 μg/ml aprotinin. After a 30 min. incubation with lysis buffer at 4° C., the lysates were centrifuged at 14,000 g in a microcentrifuge for 5 min., and the supernatants were adjusted to 1% SDS concentration and boiled for 5 min. to denature the proteins. 1% TX100 was then added to dilute the lysates to a final concentration of 0.1% SDS. Cell lysates containing equal amounts of trichloroacetic acid (TCA)-insoluble radioactivity were used for immunoprecipitations by incubating with individual monoclonal antibody (1 μg/ml) for 2.5 hours at 4° C. Protein-A Sepharose 4B was added afterwards and the lysates incubated for another 1.5 hours at 4° C. to collect the immunocomplexes. […]
# Hsp70 [2] = test: Hsp70 induction in Chinese hamster ovary (CHO) cells; assay type: cell-based; conditions: data not shown
# [3] = test system: cysteine proteases, calpain and cathepsin B; conditions: Rock, et al., 1994; cited from earlier work
structure (smiles),measurement,setting,value
"CCCC[C@@H](C=O)NC(=O)[C@H](CC(C)C)NC(=O)[C@H](CC(C)C)NC(C)=O [ALLN, N-acetyl-leucyl-leucyl-norleucinal] (Ac-Leu-Leu-[Nle]-aldehyde)",Hsp70 levels after removal of ALLN,"Hsp70 [1]; HepG2, end of a 2-hour wash",25 fold
same,Hsp70 levels after removal of ALLN,"Hsp70 [1]; HepG2, end of a 6-hour wash",8 fold
same,Hsp70 levels after removal of ALLN,"Hsp70 [1]; HepG2, end of an 8-hour wash",4 fold
same,increment of newly synthesized Hsp70 levels compared with untreated cells,"Hsp70 [1]; HepG2, 30 min labeling, ALLN 40 μg/ml, data from several experiments",~30 fold
same,response of cellular Hsp70 levels to ALLN dose,"Hsp70 [1]; HepG2, 4 hours, different doses (FIG. 1)",dose-dependent response
same,induction of Hsp70 by protease inhibitors (FIG. 3A),"Hsp70 [1]; HepG2, 4 h pre-treatment, ALLN 40, ALLM 40, leupeptin 50, pepstatin A 50, E-64d 25 μg/ml, PMSF 1 mM, aprotinin 100 KIU/ml",significantly induce
same,increase in rate of incorporation of [3H]-leucine into Hsp70,"Hsp70 [1]; HepG2, 4 h preincubation with ALLN 40 μg/ml, labeling 10-60 min, every time point",about 25 fold
same,Hsp70 levels induced,"Hsp70 [1]; HepG2, low concentration of ALLN 10 μg/ml, 4 h pre-treatment",more than 9 fold
same,induction of Hsp70 levels above baseline,Hsp70 [1]; HepG2 cells and human endothelial cells,up to 30 fold
same,"cell total incorporation of radiolabel (TCA cpm, indicator of cell toxicity)",HepG2 cells,did not change significantly
same,cellular Hsp70 levels,Hsp70 [2],increasing cellular Hsp70 levels
same,activities against calpain and cathepsin B,[3],significant activities
